From publication PMC12263422, “Cryo-EM structure of the human THIK-1 K2P K^+ channel reveals a lower Y gate regulated by lipids and anesthetics” (Nature Structural & Molecular Biology, 2025)
Several values for one entry are separate records, joined by “and”; a condition that tells them apart may be missing. Equal values may be shown once.

Biological target: T1, THIK-1 F262A (Homo sapiens, UniProt Q9HB14, F262A)
T1 construct: expressed in transfected cells; host or cells: Xenopus oocytes (mRNA injection)
T1 sequence (Q9HB14 1-408 F262A): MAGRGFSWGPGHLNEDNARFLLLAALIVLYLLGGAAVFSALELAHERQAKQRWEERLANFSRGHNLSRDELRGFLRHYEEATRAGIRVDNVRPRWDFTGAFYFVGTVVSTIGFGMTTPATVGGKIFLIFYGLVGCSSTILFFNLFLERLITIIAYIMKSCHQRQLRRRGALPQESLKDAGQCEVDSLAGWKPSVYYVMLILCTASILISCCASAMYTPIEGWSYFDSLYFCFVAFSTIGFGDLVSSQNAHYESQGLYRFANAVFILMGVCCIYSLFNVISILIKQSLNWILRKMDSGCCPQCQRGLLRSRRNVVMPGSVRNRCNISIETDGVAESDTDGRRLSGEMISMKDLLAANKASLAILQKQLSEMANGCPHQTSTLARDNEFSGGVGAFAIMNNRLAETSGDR
Assay: Inside-out excised patch recordings, oocytes, THIK-1 F262A mutant (lipid activation)
Assay type: cell-based
Settings: for EC50: Linoleic acid EC50, THIK-1 F262A; for Normalized currents / Fold activation with 30.0 µM linoleic acid: THIK-1 F262A
Source text: Human K2P13.1 THIK-1 (GenBank accession number: NM_022054) and human K2P12.1 THIK-2 (NM_022055.1) were used in this study. For functional expression studies, the respective K^+ channel subtype coding sequences were subcloned into the oocyte expression vector pSGEM or the dual-purpose expression vector pFAW[41] and verified by sequencing. All mutant channels were obtained by site-directed mutagenesis and verified by sequencing. To increase surface expression and macroscopic currents, measurements of THIK-2 channels used a mutated ER retention motif, (R11A R12A R14A R15A R16A; THIK-2*)[20]. Vector DNA was linearized with NheI or MluI, and mRNA was synthesized in vitro using the SP6 or T7 AmpliCap Max High Yield Message Maker Kit (Cellscript, USA) or HiScribe T7 ARCA mRNA Kit (New England Biolabs).
Two-electrode voltage–clamp (TEVC) studies were performed in Xenopus oocytes. All animal use conformed to the Guide for the Care and Use of Laboratory Animals (NIH Publication 85–23), and all experiments using Xenopus toads were approved by the local ethics panels. Oocytes were stored at 17 °C in ND96 recording solution composed of (in mM): 96 NaCl, 2 KCl, 1.8 CaCl2, 1 MgCl2, 5 HEPES (pH 7.5 adjusted with NaOH and HCl), supplemented with Na-pyruvate (275 mg L^–1), theophylline (90 mg L^–1) and gentamicin (50 mg L^–1). Oocytes were injected with 1 ng mRNA for WT or mutant channels, and were incubated for 24–48 h at 17 °C. Two-electrode voltage clamp recordings were then performed as previously described[42],[43]. For macroscopic patch–clamp measurements, oocytes were obtained as described above incubated at 17 °C in a solution containing (mM): 54 NaCl, 30 KCl, 2.4 NaHCO3, 0.82 MgSO4 ×7 H2O, 0.41 CaCl2, 0.33 Ca(NO3)2 ×4 H2O and 7.5 TRIS (pH 7.4 adjusted with NaOH and HCl) for 1–4 days before use. Excised patch recordings in inside-out configuration conditions were performed at room temperature. Patch pipettes were made from thick-walled borosilicate glass GB 200TF-8P (Science Products), had resistances of 0.2–0.5 MΩ (tip diameter, 10–25 µm) and filled with a pipette solution (in mM): 120 KCl, 10 HEPES and 3.6 CaCl2 (pH 7.4 adjusted with KOH and HCl). Intracellular bath solutions and compounds were applied to the cytoplasmic side of excised patches for the various K^+ channels through a gravity flow multi-barrel pipette system. The intracellular solution had the following composition (in mM): 120 KCl, 10 HEPES, 2 EGTA and 1 pyrophosphate (pH adjusted with KOH and HCl). Currents were recorded with an EPC10 amplifier (HEKA Electronics) and sampled at 10 kHz or higher, with filtering set to 3 kHz (–3 dB) or higher, as appropriate for sampling rate. For measurements of GPCR activation, whole-cell currents were recorded for THIK-1 in transiently transfected HEK-293 cells. Cells were stimulated by a ramp protocol between −100 and +60 mV (holding potential, −80 mV). The pipette solution was composed of (in mM): 140 KCl, 2 MgCl2, 1 CaCl2, 2.5 EGTA and 10 HEPES (pH 7.3 adjusted with KOH and HCl). The extracellular bath solution had the following composition (in mM): 135 NaCl, 5 KCl, 2 MgCl2, 2 CaCl2, 10 glucose and 10 HEPES pH (pH 7.3 adjusted with NaOH and HCl). Oxotremorine M (Oxo-M) was added to extracellular bath solution to obtain the final concentration. Single-channel currents were recorded with an Axopatch 200B amplifier through a Digidata 1440A digitizer (Molecular Devices). Data were filtered at 2 kHz and recorded at a 200-kHz sampling rate with the program Clampex (Molecular Devices). Pipette solution and bath solution for cell-attached recordings contained (in mM): 140 KCl, 2 MgCl2, 1 CaCl2 and 10 HEPES (pH 7.4 adjusted with KOH and HCl). For inside-out recordings, the bath solution contained (in mM): 140 KCl, 2 MgCl2, 1 CaCl2 and 10 HEPES (pH 7.2 adjusted with KOH and HCl). All experiments were conducted at room temperature. […]

EC50 (individual recordings): 48.7 µM and 50.7 µM and 292 µM and 208 µM and 91.3 µM and 64.3 µM and 43.4 µM and 58.4 µM | EC50 (mean): 107 µM | Normalized currents (1 µM linoleic acid): 0.94 | Normalized currents (10 µM linoleic acid): 1.46 | Normalized currents (30 µM linoleic acid): 1.58 | Normalized currents (50 µM linoleic acid): 2.39 | Normalized currents (100 µM linoleic acid): 3.02 | Normalized currents (150 µM linoleic acid): 3.33 | Normalized currents (200 µM linoleic acid): 3.40 | Fold activation with 30.0 µM linoleic acid (mean): 1.57
SMILES: CCCCC/C=C\C/C=C\CCCCCCCC(=O)O [linoleic acid]
Fold activation with 30.0 µM linoleic acid (individual recordings): 1.770 and 1.480 and 1.860 and 1.430 and 1.420 and 1.440
